In PubChem BioAssay (NCI) one finds TGI data, which are given here for 28 molecules.

The structures appear in SMILES notation.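 Five compound concentrations were applied to cells in 96-well plates for 48 hours; endpoints were derived by simple linear interpolation of the resulting dose-response curve. TGI: total growth inhibition.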

The first experiment concerns A498 renal. The experiment in a line: NCI anticancer screen, dose series, 48 h.
`CC(C)C(Cl)CCC(C)(Cl)C(=O)CBr` (configuration not stated) yielded a TGI of 30.3 µM.
On the same count and under the same terms, the value for `C1CSCCSCCCS[C@@H]2CCCCC2SC1` (some centres not stated) was greater than 100 µM.
Same read-out and setting: to `Cc1cccc2sc(NC(=O)NS(=O)(=O)n3cnc4ccccc43)nc12` belongs 72.3 µM; to `COC(=O)C1CCC(=O)N1CN(C(C)=O)c1cccc(O)c1` (configuration not stated), greater than 100 µM.
Same read-out and setting: the value for `NNc1nnc(CCCCCCCCc2nnc(NN)n2N)n1N` was greater than 100 µM; that for `c1cc(-c2ccc(-c3ccsc3)s2)cs1` was greater than 100 µM.
As to `O=C1c2ccccc2N2OC3(N4CCOCC4)CCCC3C12c1ccccc1` (configuration not stated), the TGI was greater than 100 µM.
Take `COC(=O)[C@@]12OC[C@]34C([C@@H](O)C1O)[C@@]1(C)CC(=O)C(OC(=O)CC(C)C(F)(F)F)=C(C)C1C[C@H]3OC(=O)[C@H](O)[C@H]42` (some centres not stated): the TGI was found to be 0.625 µM.
As for `COC(CN(C)C(=S)Nc1cccc2ccccc12)OC`, the TGI is greater than 10 µM.
Still for that read-out and setting: to `CC1(C)O[C@@H]2[C@@H](COC(C)(C)O[C@H]2C2SCCCS2)O1` belongs greater than 100 µM; to `N#Cc1sc2nc3ccccc3n2c1N`, greater than 100 µM.
Regarding `O=C(O)CCCc1ccc2c(c1)CC1(C2)Cc2cc3c(cc2C1)CCCC3`, the TGI is 35.3 µM.
Same read-out and setting: the value for `CN(NC1=NCCO1)c1ccc2ccccc2c1` was greater than 100 µM; that for `CCOC(=O)C1(C/C=C\CBr)CCCC1=O` (configuration not stated) was greater than 100 µM.
On the same count and under the same terms, to `COc1ccc(OC)c2sc(N3C(=O)/C(=C/c4cccc(Oc5ccccc5)c4)N=C3c3ccccc3)nc12` belongs greater than 100 µM; to `Cc1[nH]n(-c2nc3c(c(=O)[nH]2)CCCC3)c(=O)c1CCO`, greater than 100 µM; to `Cc1nc2c(sc3nc4c(cc32)CCC4)c(=O)o1`, greater than 100 µM.
Turning to `Cc1cc2nc3c(C#N)c(-c4ccccc4)/c(=C\Nc4ccc(F)cc4)c(=O)n3c2cc1C`, the TGI was greater than 100 µM.
On to `O=C(c1ccccc1)C1(Br)S(=O)(=O)OCCOS1(=O)=O`, for which the TGI was greater than 100 µM.

Another experiment relates to BT-549 breast. The experiment in a line: NCI anticancer screen, dose series, 48 h.
On to `CC(C)C(Cl)CCC(C)(Cl)C(=O)CBr` (configuration not stated), for which the TGI is 22.6 µM.
For `Clc1ccc(C=Nc2ccc(Oc3ccc(Cl)cc3)c(Cl)c2)cc1`, the TGI turned out to be 53.3 µM.
Same read-out and setting: the value for `Cc1cccc2sc(NC(=O)NS(=O)(=O)n3cnc4ccccc43)nc12` was 59.9 µM; that for `NNc1nnc(CCCCCCCCc2nnc(NN)n2N)n1N` was 90.3 µM; that for `Cn1c(CNc2ccc(-c3n[nH]c(=S)n3C)cc2)n[nH]c1=S` was greater than 100 µM.
On the same count and under the same terms, the value for `COc1cc(C2c3cc4c(cc3OC(NN)C2C)OCO4)cc(OC)c1O` (configuration not stated) was 51.3 µM.
On the same count and under the same terms, the value for `N#Cc1sc2nc3ccccc3n2c1N` was greater than 100 µM.
`CCOC(=O)C1(C/C=C\CBr)CCCC1=O` (configuration not stated) showed a TGI of 80.3 µM.
Molecule `COc1ccc(OC)c2sc(N3C(=O)/C(=C/c4cccc(Oc5ccccc5)c4)N=C3c3ccccc3)nc12` registered a TGI greater than 100 µM.
In turn, `Cc1cc(O)c(/C=N/C(N)=S)c(=O)o1` returned a TGI greater than 100 µM.
Same read-out and setting: the value for `Cc1cc2nc3c(C#N)c(-c4ccccc4)/c(=C\Nc4ccc(F)cc4)c(=O)n3c2cc1C` was greater than 100 µM; that for `O=S(=O)(/N=C(\NO)Nc1ccc(Cl)cc1)c1cc(C(F)(F)F)cc(C(F)(F)F)c1` was 33.3 µM.

A further experiment deals with COLO 205 colon. The experiment in a line: NCI anticancer screen, dose series, 48 h.
In the case of `CC(C)C(Cl)CCC(C)(Cl)C(=O)CBr` (configuration not stated), the TGI came to 12 µM.
`Clc1ccc(C=Nc2ccc(Oc3ccc(Cl)cc3)c(Cl)c2)cc1`: the TGI was found to be 36.5 µM.
As to `C1CSCCSCCCS[C@@H]2CCCCC2SC1` (some centres not stated), the TGI was greater than 100 µM.
On the same count and under the same terms, the value for `Cc1cccc2sc(NC(=O)NS(=O)(=O)n3cnc4ccccc43)nc12` was greater than 100 µM; that for `COC(=O)C1CCC(=O)N1CN(C(C)=O)c1cccc(O)c1` (configuration not stated) was greater than 100 µM.
Same read-out and setting: the value for `NNc1nnc(CCCCCCCCc2nnc(NN)n2N)n1N` was greater than 100 µM.
In turn, `CCOC(=O)c1c(NC(=O)c2ccccc2)c(C#N)c2n1CCCCC2` had a TGI greater than 100 µM.
Still for that read-out and setting: to `Oc1c(N2CCCCC2)cc(-c2cc(N3CCCCC3)c(O)c3ccccc23)c2ccccc12` belongs 67.6 µM; to `c1cc(-c2ccc(-c3ccsc3)s2)cs1`, greater than 100 µM; to `O=C1c2ccccc2N2OC3(N4CCOCC4)CCCC3C12c1ccccc1` (configuration not stated), greater than 100 µM.
On the same count and under the same terms, the value for `Cn1c2ccccc2c(=O)c2c(O)cc3c(c21)C1OCC(C)(O)C1O3` (configuration not stated) was greater than 100 µM; that for `Cn1c(CNc2ccc(-c3n[nH]c(=S)n3C)cc2)n[nH]c1=S` was greater than 100 µM.
`COc1cc(C2c3cc4c(cc3OC(NN)C2C)OCO4)cc(OC)c1O` (configuration not stated) displayed a TGI of 40.4 µM.
`COC(=O)[C@@]12OC[C@]34C([C@@H](O)C1O)[C@@]1(C)CC(=O)C(OC(=O)CC(C)C(F)(F)F)=C(C)C1C[C@H]3OC(=O)[C@H](O)[C@H]42` (some centres not stated) returned a TGI of 30 µM.
Same read-out and setting: the value for `COC(CN(C)C(=S)Nc1cccc2ccccc12)OC` was greater than 10 µM.
In turn, `CC1(C)O[C@@H]2[C@@H](COC(C)(C)O[C@H]2C2SCCCS2)O1` came in with a TGI greater than 100 µM.
On the same count and under the same terms, to `N#Cc1sc2nc3ccccc3n2c1N` belongs greater than 100 µM; to `O=C(O)CCCc1ccc2c(c1)CC1(C2)Cc2cc3c(cc2C1)CCCC3`, 38.2 µM.
As for `CN(NC1=NCCO1)c1ccc2ccccc2c1`, the TGI is greater than 100 µM.
Still for that read-out and setting: the value for `CCOC(=O)C1(C/C=C\CBr)CCCC1=O` (configuration not stated) was greater than 100 µM; that for `COc1ccc(OC)c2sc(N3C(=O)/C(=C/c4cccc(Oc5ccccc5)c4)N=C3c3ccccc3)nc12` was greater than 100 µM; that for `Cc1cc(O)c(/C=N/C(N)=S)c(=O)o1` was greater than 100 µM.
`Cc1[nH]n(-c2nc3c(c(=O)[nH]2)CCCC3)c(=O)c1CCO` gave a TGI greater than 100 µM.
The same measure, in the same setting: the value for `Cc1nc2c(sc3nc4c(cc32)CCC4)c(=O)o1` was greater than 100 µM; that for `Cc1cc2nc3c(C#N)c(-c4ccccc4)/c(=C\Nc4ccc(F)cc4)c(=O)n3c2cc1C` was greater than 100 µM; that for `O=C(c1ccccc1)C1(Br)S(=O)(=O)OCCOS1(=O)=O` was greater than 100 µM.
Still for that read-out and setting: the value for `C1CCC(N=C2N(C3CCCCC3)C(=NC3CCCCC3)N2C2CCCCC2)CC1` was greater than 100 µM; that for `O=S(=O)(/N=C(\NO)Nc1ccc(Cl)cc1)c1cc(C(F)(F)F)cc(C(F)(F)F)c1` was 35.5 µM.

The test system of a further experiment is EKVX NSCLC. The experiment in a line: NCI anticancer screen, dose series, 48 h.
In turn, `CC(C)C(Cl)CCC(C)(Cl)C(=O)CBr` (configuration not stated) displayed a TGI of 32.8 µM.
Same read-out and setting: the value for `Clc1ccc(C=Nc2ccc(Oc3ccc(Cl)cc3)c(Cl)c2)cc1` was 70.2 µM; that for `C1CSCCSCCCS[C@@H]2CCCCC2SC1` (some centres not stated) was greater than 100 µM; that for `Cc1cccc2sc(NC(=O)NS(=O)(=O)n3cnc4ccccc43)nc12` was greater than 100 µM.
`COC(=O)C1CCC(=O)N1CN(C(C)=O)c1cccc(O)c1` (configuration not stated): the TGI was greater than 100 µM.
Still for that read-out and setting: the value for `NNc1nnc(CCCCCCCCc2nnc(NN)n2N)n1N` was greater than 100 µM.
On the same count and under the same terms, the value for `CCOC(=O)c1c(NC(=O)c2ccccc2)c(C#N)c2n1CCCCC2` was greater than 100 µM; that for `Oc1c(N2CCCCC2)cc(-c2cc(N3CCCCC3)c(O)c3ccccc23)c2ccccc12` was greater than 100 µM.
